According to publication PMC10038264, “A new family of glutamate-gated chloride channels in parasitic sea louse Caligus rogercresseyi: A subunit refractory to activation by ivermectin is dominant in heteromeric assemblies” (PLOS Pathogens, 2023):

Tests used:
CrGluCl-A = CrGluCl-A (Caligus rogercresseyi, UniProt A0A1W6LZ70); assay: Two-electrode voltage-clamp of Xenopus oocytes expressing CrGluCl-A; format: cell-based; details: CrGluCl-A alone
Experimental: (§1) Adult female Xenopus laevis frogs were anaesthetized by immersion in a1g/L solution tricaine (Ethyl 3-aminobenzoate methanesulfonate, Sigma) buffered to pH 7 with NaHCO3. Surgery was performed 30–40 min later, once the frog was completely anaesthetized judging by loss of reflexes. Ovarian lobes were removed through 1 cm abdominal incision and then kept at 16°C in Barth’s modified solution containing (in mM): 88 NaCl, 1 KCl, 0.4 CaCl2, 0.3 Ca (NO3)2, 0.8 MgSO4, 2.4 NaHCO3, 5 Hepes, 2.5 sodium pyruvate, 100 μg/ml gentamicin sulfate, 100 U/ml penicillin, 100 μg/ml streptomycin, 250 μg/ml amphotericin B, 0.22μm filtered and adjusted to pH 7.5 with Tris-Base. Osmolarity was brought to 220 mOsm with saccharose. The oocytes were manually defolliculated on the same day of extraction and the following day 20 ng cRNA in nuclease-free water was injected into stage V-VI oocytes using a FemtoJet microinjector (Eppendorf). Finally, the injected oocytes were stored in 96 well plates containing Barth’s modified solution and kept at 16°C until experiment day.
Current measurements at controlled membrane potentials (voltage-clamp experiments) were performed using two intracellular microelectrodes in defolliculated Xenopus oocytes previously microinjected with 20 ng of cRNA. Voltage-clamp recording was performed at room temperature using a TURBO TEC-10CX amplifier (npi electronic GmbH, Tamm, Germany) and PClamp 10.6 software (Axon Instruments, USA), 1 to 4 days after oocyte injection. The oocytes were recorded in a chamber (Model RC-1Z, Warner Instrumenst, USA) under continuous superfusion. […] Reference was an Ag-AgCl electrode connected to the bath via a 3 M KCl in 3% agar bridge. Currents were recorded continuously during the experiments without interruptions for solution changes. […] The signal filtered at 1 kHz was acquired with a Digidata 1440A Analog-to-Digital Converter and analyzed with Axon pClamp 10.6 software. […]

CrGluCl-B Q279E mutant = assay: Voltage-clamp of oocytes expressing CrGluCl-B Q279E mutant; format: cell-based, Caligus rogercresseyi; details: 1 μM ivermectin, one-sample t-test
Excerpt: (§2) To identify putative GluCl subunits, we queried the NCBI Transcriptome Shotgun Assembly Sequence (TSA) Database for “glutamate-gated chloride channel Caligus”. The obtained sequences were translated and BLASTed (tBLASTn) against the C. rogercresseyi genome (WGS, BioProject ID 280098, NCBI) and against transcripts of L. salmonis database (https://licebase.org/). Primers for each of the putative new subunit found were designed to span the full length of the open reading frame (ORF) for each of them (B-E) (S1 Table, and arrows in Fig 1). Complete cDNAs were generated by RT-PCR from adult C. rogercresseyi samples from which putative full-length peptide sequences of CrGluCl-B, CrGluCl-C, CrGluCl-D and CrGluCl-E were obtained. Each PCR product was cloned in pGEM-T easy vector and sequenced. […]
(§3) Current measurements at controlled membrane potentials (voltage-clamp experiments) were performed using two intracellular microelectrodes in defolliculated Xenopus oocytes previously microinjected with 20 ng of cRNA. […] The oocytes were recorded in a chamber (Model RC-1Z, Warner Instrumenst, USA) under continuous superfusion. […] Currents were recorded continuously during the experiments without interruptions for solution changes. […] The signal filtered at 1 kHz was acquired with a Digidata 1440A Analog-to-Digital Converter and analyzed with Axon pClamp 10.6 software. […]

CrGluCl-B Y361F mutant = assay: Voltage-clamp of oocytes expressing CrGluCl-B Y361F mutant; format: cell-based, Caligus rogercresseyi; details: 1 μM ivermectin, one-sample t-test
Excerpt: as §2, §3

[1] = tested on: coexpressed CrGluCl-D:CrGluCl-B; assay: Voltage-clamp of oocytes coexpressing CrGluCl-D and CrGluCl-B; format: cell-based, Caligus rogercresseyi; details: B:D ratio 1:1
Experimental: as §1, with “The oocytes were manually defolliculated on the same day of extraction and the following day 20 ng cRNA in nuclease-free water was injected into stage V-VI oocytes using a FemtoJet microinjector (Eppendorf). Finally, the injected oocytes were stored in 96 well plates containing Barth’s modified solution and kept at 16°C until experiment day.” left out
as §3

CrGluCl-B Q327T mutant = assay: Voltage-clamp of oocytes expressing CrGluCl-B Q327T mutant; format: cell-based, Caligus rogercresseyi; details: 1 μM ivermectin, ANOVA P<0.05
Excerpt: as §2, §3

[2] = tested on: coexpressed CrGluCl-D:CrGluCl-A; assay: Voltage-clamp of oocytes coinjected with CrGluCl-D and CrGluCl-A; format: cell-based, Caligus rogercresseyi; details: D:A ratio 1:1
Experimental: as §1, with “The oocytes were manually defolliculated on the same day of extraction and the following day 20 ng cRNA in nuclease-free water was injected into stage V-VI oocytes using a FemtoJet microinjector (Eppendorf). Finally, the injected oocytes were stored in 96 well plates containing Barth’s modified solution and kept at 16°C until experiment day.” left out
as §3

[3] = tested on: CrGluCl-B Q279E-Y361F mutant; assay: Voltage-clamp of oocytes expressing CrGluCl-B Q279E-Y361F double mutant; format: cell-based, Caligus rogercresseyi; details: 1 μM ivermectin, one-sample t-test
Excerpt: as §2, §3

Sequence of CrGluCl-A (A0A1W6LZ70 entry or part of it): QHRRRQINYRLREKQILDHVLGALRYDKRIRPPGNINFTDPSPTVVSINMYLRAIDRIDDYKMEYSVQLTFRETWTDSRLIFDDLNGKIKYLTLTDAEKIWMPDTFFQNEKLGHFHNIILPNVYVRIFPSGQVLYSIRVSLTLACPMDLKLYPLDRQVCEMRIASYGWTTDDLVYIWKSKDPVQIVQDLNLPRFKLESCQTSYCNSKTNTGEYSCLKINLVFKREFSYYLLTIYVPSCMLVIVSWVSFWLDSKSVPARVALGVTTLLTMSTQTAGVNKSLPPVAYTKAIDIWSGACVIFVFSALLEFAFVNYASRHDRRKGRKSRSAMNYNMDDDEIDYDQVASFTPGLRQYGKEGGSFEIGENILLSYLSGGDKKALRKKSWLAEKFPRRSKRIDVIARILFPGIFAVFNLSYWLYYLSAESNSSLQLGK

| Compound | nH (glutamate) (CrGluCl-A; 60 mV) | EC50 (CrGluCl-A; EC50 Glutamate, currents at 60 mV, Hill fit) [µM] | effect of ivermectin on current (CrGluCl-B Q279E mutant) | effect of ivermectin on current (CrGluCl-B Y361F mutant) | nH (ivermectin) [1] | EC50 ([1]; read-out: EC50 ivermectin (Iver response to activation)) [µM] | effect of ivermectin on current compared with WT (CrGluCl-B Q327T mutant) | Iver response to activation [2] | effect of ivermectin on current [3] |
| --- | --- | --- | --- | --- | --- | --- | --- | --- | --- |
| N[C@@H](CCC(=O)O)C(=O)O [glutamate, L-glutamate] | 1.65 ± 0.63 | 7.2 ± 2.7 | – | – | – | – | – | – | – |
| ivermectin | – | – | small but significant effects | small but significant effects | 2.6 ± 1.1 | 0.278 ± 0.053 | significantly greater | Sensitive | small but significant effects |
